Results taken from patent publication US20200270309A1, “MALEIMIDE GROUP-MODIFIED ANGIOGENESIS INHIBITOR HM-1 AND USE THEREOF” (NANJING ANJI BIOLOGICAL TECHNOLOGY CO., LTD, priority 2017, published 2020).
Peptide text beside a SMILES is read from it. * marks the point of attachment. X64 = O=C1C=CC(=O)N1c1cccc(CCCCCCCCCC(=O)*)c1; X68 = O=C1C=CC(=O)N1c1ccccc1CCCCCCCCCCCC(=O)*; X52 = O=C1C=CC(=O)N1c1ccccc1CCCCCCCC(=O)*; X46 = O=C1C=CC(=O)N1c1cccc(CCCCC(=O)*)c1; X63 = O=C1C=CC(=O)N1c1ccccc1CCCCCCC(=O)*; X79 = O=C1C=CC(=O)N1c1cccc(CCC(=O)*)c1

What was measured:
[1] = system: IL-1β production by mouse peritoneal macrophages; assay: IL-1β production by mouse peritoneal macrophages (ELISA); type: cell-based; settings: for Inhibition rate: IL-1β production, vs model group; for IL-1β: mouse peritoneal macrophages, 48 h, ELISA
Method in brief: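 Starch-elicited (6%, i.p.) mouse peritoneal macrophages, 2×10^6 cells/mL in RPMI 1640, adhered 3 h; non-adherent cells washed off. Polypeptides added at low, medium and high concentrations, Dex as positive control; cultured 48 h, supernatant IL-1β measured.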

[2] = system: retinal vascular endothelial nuclei; assay: Neovascularization in a rat model of premature retinopathy; type: in vivo, rats; settings: dose 0.05 μM in the vitreous chamber from day 7 of modeling for one week; counted on day 14; oxygen-induced neonatal rats
Description: Using a fluctuating oxygen-induced animal model, newborn rats born naturally on the same day (within 12 h) were randomly divide into three groups: an oxygen model group, an oxygen treatment group and a normal control group. The oxygen model was further divided into three sub-group model groups, and the sub-group model groups and the treatment group were all placed in a semi-closed oxygen chamber made of organic glass; medical oxygen was introduced into the chamber, and the concentration was adjusted to 80%±2% by an oxygen meter; nitrogen was introduced into the oxygen chamber after 24 h, and the oxygen concentration was adjusted to 10%±2% rapidly and maintained for 24 h. This was repeated to keep the oxygen concentration in the oxygen chamber alternating between 80% and 10% every 24 h, the oxygen concentration was maintained for 7 d, and then the rats were fed in the air. The oxygen concentration was monitored 8 times a day, and the ambient temperature in the chamber was controlled at 23° C.±2° C. Bedding was replaced, feed was added, and water and mother rats were replaced once. The normal control group was placed in the animal room feeding environment. […] The oxygen treatment group was divided into three subgroups. On day 7 of modeling, X1-[…], […]-[…] and […]-X90 were injected in the vitreous chamber respectively, and the oxygen model group and the control group were only given normal saline for one week. On day 14, after the rats were anesthetized by diethyl ether and killed, eyeballs were extracted and fixed in 40 g/L paraformaldehyde solution for 24 h. Gradient dehydration by alcohol was performed, and the eyeballs were processed by xylene to be transparent. After waxing, the eyeballs were sectioned continuously to a thickness of 4μm, and the periphery of the optic disc should be avoided as much as possible. The sections were parallel to the sagittal plane from cornea to the optic disc. Ten sections of each eyeball were randomly taken and stained with hematoxylin eosin, the number of vascular endothelial nuclei that broke through the inner limiting membrane of the retina (only the number of vascular endothelial nuclei closely related to the inner limiting membrane were counted) was counted, and statistics of the average number of cells per section per eyeball was performed. Results: In the control group, there were no vascular endothelial nuclei that broke through the inner limiting membrane of the retina and grew into vitreous body, or the vascular endothelial nuclei were occasionally found in only a few sections. In the model group, there were many vascular endothelial nuclei that broke through the inner limiting membrane of the retina, some appeared alone, and some appeared in clusters. At the same time, on some sections, these vascular endothelial nuclei were also found adjacent to deep retinal vessels, confirming that they originated from the retina rather than the vitreous body or other ocular tissues. In the treatment group, only a few vascular endothelial nuclei that broke through the inner limiting membrane of retina could be seen in the sections.

[3] = system: splenic lymphocytes; assay: Proliferation of splenic lymphocytes in mice (ConA, MTT); type: cell-based; settings: ConA-stimulated mouse splenic lymphocytes, 48 h
Method in brief: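 Mouse splenocytes (5×10^6 cells/mL, RPMI 1640 with 10% calf serum, red cells lysed) stimulated with ConA plus varying polypeptide concentrations, with blank, ConA-only and Dex groups, 48 h at 37° C. MTT added for 4 h, formazan dissolved in DMSO, OD read at 570 nm; five replicates.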

| Compound | Inhibition rate ([1]; dose 0.05 μM) [%] | IL-1β ([1]; dose 0.05 μM) [pg/mL] | Inhibition rate ([1]; dose 0.1 μM) [%] | IL-1β ([1]; dose 0.1 μM) [pg/mL] | Inhibition rate ([1]; dose 0.2 μM) [%] | IL-1β ([1]; dose 0.2 μM) [pg/mL] | Nuclei count (retinal vascular endothelial nuclei, average per section per eyeball) [2] | A570 nm/A630 nm ([3]; polypeptide dose 0.05 μM) | Inhibition rate (%) ([3]; polypeptide dose 0.05 μM) | A570 nm/A630 nm ([3]; polypeptide dose 0.1 μM) | Inhibition rate (%) ([3]; polypeptide dose 0.1 μM) | A570 nm/A630 nm ([3]; polypeptide dose 0.2 μM) | Inhibition rate (%) ([3]; polypeptide dose 0.2 μM) |
| --- | --- | --- | --- | --- | --- | --- | --- | --- | --- | --- | --- | --- | --- |
| C[C@H](NC(=O)CNC(=O)[C@H](CCCNC(=N)N)NC(=O)CCCCCCCc1ccccc1N1C(=O)C=CC1=O)C(=O)N[C@@H](CC(=O)O)C(=O)N[C@@H](CCCNC(=N)N)C(=O)N[C@@H](C)C(=O)NCC(=O)NCC(=O)NCC(=O)NCC(=O)N[C@@H](CCCNC(=N)N)C(=O)NCC(=O)N[C@@H](CC(=O)O)C(=O)O [X19] (X52-RGADRAGGGGRGD-OH) | 37.19 | 591.13 ± 10.54 | 37.27 | 590.42 ± 10.34 | 37.39 | 589.21 ± 12.08 | 7.236 ± 1.218 | 0.5093 ± 0.0372 | 24.59 | 0.5027 ± 0.0814 | 25.57 | 0.4978 ± 0.0481 | 26.30 |
| C[C@H](NC(=O)CNC(=O)[C@H](CCCNC(=N)N)NC(=O)CCCCCCCCCCCc1ccccc1N1C(=O)C=CC1=O)C(=O)N[C@@H](CC(=O)O)C(=O)N[C@@H](CCCNC(=N)N)C(=O)N[C@@H](C)C(=O)NCC(=O)NCC(=O)NCC(=O)NCC(=O)N[C@@H](CCCNC(=N)N)C(=O)NCC(=O)N[C@@H](CC(=O)O)C(=O)O [X23] (X68-RGADRAGGGGRGD-OH) | 15.69 | 793.48 ± 19.42 | 30.92 | 650.17 ± 14.98 | 33.74 | 623.64 ± 12.33 | 8.275 ± 1.713 | 0.5946 ± 0.0378 | 11.96 | 0.4982 ± 0.1212 | 26.24 | 0.4363 ± 0.0933 | 35.40 |
| C[C@H](NC(=O)CNC(=O)[C@H](CCCNC(=N)N)NC(=O)CCCCc1cccc(N2C(=O)C=CC2=O)c1)C(=O)N[C@@H](CC(=O)O)C(=O)N[C@@H](CCCNC(=N)N)C(=O)N[C@@H](C)C(=O)NCC(=O)NCC(=O)NCC(=O)NCC(=O)N[C@@H](CCCNC(=N)N)C(=O)NCC(=O)N[C@@H](CC(=O)O)C(=O)O [X28] (X46-RGADRAGGGGRGD-OH) | 15.78 | 792.64 ± 11.74 | 31.90 | 640.89 ± 14.7 | 32.28 | 637.34 ± 10.85 | 9.261 ± 3.879 | 0.5765 ± 0.0594 | 14.64 | 0.5541 ± 0.0486 | 17.96 | 0.5087 ± 0.0793 | 24.68 |
| C[C@H](NC(=O)CNC(=O)[C@H](CCCNC(=N)N)NC(=O)CCc1cccc(N2C(=O)C=CC2=O)c1)C(=O)N[C@@H](CC(=O)O)C(=O)N[C@@H](CCCNC(=N)N)C(=O)N[C@@H](C)C(=O)NCC(=O)NCC(=O)NCC(=O)NCC(=O)N[C@@H](CCCNC(=N)N)C(=O)NCC(=O)N[C@@H](CC(=O)O)C(=O)O [X26] (X79-RGADRAGGGGRGD-OH) | 18.26 | 769.33 ± 19.82 | 21.99 | 734.20 ± 13.89 | 29.51 | 663.38 ± 11.96 | 8.343 ± 2.131 | 0.5714 ± 0.1002 | 15.46 | 0.5365 ± 0.0543 | 20.57 | 0.4991 ± 0.0743 | 26.10 |
| C[C@H](NC(=O)CNC(=O)[C@H](CCCNC(=N)N)NC(=O)CCCCCCc1ccccc1N1C(=O)C=CC1=O)C(=O)N[C@@H](CC(=O)O)C(=O)N[C@@H](CCCNC(=N)N)C(=O)N[C@@H](C)C(=O)NCC(=O)NCC(=O)NCC(=O)NCC(=O)N[C@@H](CCCNC(=N)N)C(=O)NCC(=O)N[C@@H](CC(=O)O)C(=O)O [X18] (X63-RGADRAGGGGRGD-OH) | 23.36 | 721.31 ± 12.75 | 23.86 | 716.58 ± 16.56 | 27.40 | 683.26 ± 19.63 | 8.002 ± 3.606 | 0.6041 ± 0.0524 | 10.56 | 0.5571 ± 0.0554 | 17.52 | 0.4402 ± 0.0534 | 34.82 |
| C[C@H](NC(=O)CNC(=O)[C@H](CCCNC(=N)N)NC(=O)CCCCCCCCCc1cccc(N2C(=O)C=CC2=O)c1)C(=O)N[C@@H](CC(=O)O)C(=O)N[C@@H](CCCNC(=N)N)C(=O)N[C@@H](C)C(=O)NCC(=O)NCC(=O)NCC(=O)NCC(=O)N[C@@H](CCCNC(=N)N)C(=O)NCC(=O)N[C@@H](CC(=O)O)C(=O)O [X33] (X64-RGADRAGGGGRGD-OH) | 25.68 | 699.41 ± 11.17 | 34.80 | 613.62 ± 19.23 | 36.96 | 593.32 ± 11.64 | 7.654 ± 1.142 | 0.5669 ± 0.1137 | 16.06 | 0.5297 ± 0.0479 | 21.57 | 0.4492 ± 0.1069 | 33.49 |
